Test results taken from the NIST ThermoML archive (doi:10.1021/je7000254).

Assay: xn = mol fraction of the nth substance listed
Conditions: Fluid (supercritical or subcritical phases), Taylor-Aris chromatographic method, x1 = 0

Row | Structure (SMILES) | binary diffusion coefficient (313.16 K, 15000 kPa) [m2/s] | binary diffusion coefficient (313.16 K, 20000 kPa) [m2/s] | binary diffusion coefficient (313.16 K, 25000 kPa) [m2/s] | binary diffusion coefficient (313.16 K, 30000 kPa) [m2/s] | binary diffusion coefficient (313.16 K, 35000 kPa) [m2/s] | binary diffusion coefficient (323.16 K, 15000 kPa) [m2/s] | binary diffusion coefficient (323.16 K, 20000 kPa) [m2/s] | binary diffusion coefficient (323.16 K, 25000 kPa) [m2/s] | binary diffusion coefficient (323.16 K, 30000 kPa) [m2/s] | binary diffusion coefficient (323.16 K, 35000 kPa) [m2/s] | binary diffusion coefficient (333.16 K, 15000 kPa) [m2/s] | binary diffusion coefficient (333.16 K, 20000 kPa) [m2/s] | binary diffusion coefficient (333.16 K, 25000 kPa) [m2/s] | binary diffusion coefficient (333.16 K, 30000 kPa) [m2/s] | binary diffusion coefficient (333.16 K, 35000 kPa) [m2/s]
1 | Cc1cc(C)cc(C)c1 [1,3,5-trimethylbenzene] + O=C=O | 1.04e-08 | 9.15e-09 | 8.21e-09 | 7.78e-09 | 7.46e-09 | 1.19e-08 | 1.11e-08 | 9.33e-09 | 9.23e-09 | 8.6e-09 | 1.42e-08 | 1.23e-08 | 1.15e-08 | 1.04e-08 | 9.89e-09
2 | Nc1ccccc1 [aniline] + O=C=O | 1.02e-08 | 9.75e-09 | 9.06e-09 | 8.43e-09 | 7.76e-09 | 1.18e-08 | 1.08e-08 | 9.66e-09 | 9.1e-09 | 8.7e-09 | 1.33e-08 | 1.19e-08 | 1.1e-08 | 1.02e-08 | 9.47e-09
3 | C=Cc1ccccc1 [styrene] + O=C=O | 1.19e-08 | 1.08e-08 | 9.58e-09 | 8.74e-09 | 8.27e-09 | 1.32e-08 | 1.12e-08 | 1.06e-08 | 9.2e-09 | 8.77e-09 | 1.55e-08 | 1.41e-08 | 1.22e-08 | 1.09e-08 | 1.02e-08
